Experimental data: paper PMC9763021, “Comprehensive Assessment of Biomolecular Interactions of Morpholine-Based Mixed Ligand Cu(II) and Zn(II) Complexes of 2,2′-Bipyridine as Potential Anticancer and SARS-CoV-2 Agents: A Synergistic Experimental and Structure-Based Virtual Screening” (Bioinorganic Chemistry and Applications, 2022)

Key:
[1] = system: Bacillus cereus; assay: Agar disc diffusion, strain G; assay type: cell-based; design: (inhibition %): concentration or dose not given beside the values; details: for diameter of the clear zone inhibition: control = 6 mm
Method: (§1) In-vitro antimicrobial properties were evaluated for all samples by the agar disc diffusion method towards different fungal and bacterial strains. Additionally, the reported inhibition zone values were comparatively analyzed with the standard antifungal drugs ketoconazole and amphotericin B as well as the standard antibiotic medications streptomycin and amikacin.
(§2) The current research has a curious focus on the in vitro antimicrobial properties of biological systems because these studies are crucial for developing effective antibacterial and antifungal medications. […] It can also be spelled out based on the chelation theory proposed by Overtone and Tweedy. Chelation theory points out that the partial exchanging of the positive charge of the metal center with donor moieties, and overlap of the ligand orbitals will reduce the greater degree of the metal ion's polarity, which ultimately rises the delocalization of π and d electrons over the full chelated ring system. By raising the size of the metal ion due to the retarding of polarization, chelation may also enhance the complexes' lipophilic characteristics, which further stimulate the lipid membrane permeability and break down the bacteria' enzymes responsible for cell wall formation, therefore slowing down the regular cell processes. By preventing the production of cell walls/proteins/DNA, including by obstructing folate metabolism and the cytoplasmic membrane, antimicrobial drugs frequently either fully eliminate microbes or only prevent their cell growth. Additionally, the samples' mode of action may be employed in disrupting the cell's respiration process by forming an H-bond during the morpholine-fused iminic group coordinated with the active metal center of its components, inhibiting proliferation of the cell. […] The difference in the antimicrobial efficacy of some of the compounds towards various microorganisms influences on the impermeability of the cells of the germs or the diversity of ribosomes of the microbes. The % of the inhibition of all substances is estimated from (45) (Table 9).
(§3) (A, B, C, D, and E are represented as gram negative bacteria species Escherichia coli, Salmonella enteric serovar typhi, Salmonella enteric serovar typhi, Pseudomonas aeruginosa, and Shigella flexneri, respectively. F & G are denoted as gram positive bacteria species Staphylococcus aureus and Bacillus cereus. H, I, and J are represented as fungal strains Aspergillus niger, Candida albicans, and Mucor indicus. Standard drugs for bacterial strains: Amikacin & Streptomycin Standard drugs for fungal strains: Ketoconazole and Amphotericin B. [Control (DMSO) = 6 mm].(44) Inhibition %=T–C/T×100, where T and C are represented as the diameter of microbial growth of the sample plates and the control plate (6 mm), respectively. Error limits ±2.5–5.0% (P ≤ 0.05).

[2] = system: Pseudomonas aeruginosa; assay: Agar disc diffusion, strain D; assay type: cell-based; design: (inhibition %): concentration or dose not given beside the values; details: for diameter of the clear zone inhibition: control = 6 mm
Method: as §1, §2, §3

[3] = system: calf thymus deoxyribonucleic acid; assay: DNA binding by viscometric (hydrodynamic) technique
Method: The titrations were performed for all compounds including EB (control) at 20, 40, 60, 80, and 100 μM concentrations. In the Ostwald viscometer, these substances were also separately treated with the calf thymus deoxyribonucleic acid solution (100 μM).
Hydrodynamic findings can be utilized to assess the alteration of DNA length and afford details on the binding tendency between small molecules and biomolecules. As a result of their sensitivity to DNA contour length changes, which implies that the average distance between each monomer (cl = 0.338 nm/bp for B-form DNA), the DNA binding properties of all test compounds were further validated by this method. According to the Lerman concept, interactions between small molecules and deoxyribonucleic acid via covalent and noncovalent bindings are often possible. When a chemical substance interacts with the deoxyribonucleic acid double helix, the contour length of DNA increases via intercalation and leads to an increase in the absolute viscosity. Meanwhile, if DNA viscosity is not affected during interactions, which leads to the responsible for the major/minor groove binding due to H-bond/Van der Waals interactions, electrostatic, partial, or nonclassical interaction modes. Therefore, analyzing the binding modes provides additional support for the findings as well as a crucial aspect of the conventional intercalation concept. In this case, it was observed that the absolute viscosity increased consistently along with the concentration of each substance at the fixed DNA concentration. The DNA must extend to facilitate the binding of ligands, which causes a considerable rise in DNA viscosity while small molecules intercalate into the DNA helix. According to equation (12), an increase in relative viscosity denotes an intercalation-induced lengthening of the deoxyribonucleic acid base pair. While adhering to the principle of excluding the nearest neighbors, intercalation entails inserting a planar molecule into a DNA base pair without rupturing the hydrogen bonds that hold the base pairs together. This causes a diminution in the DNA helical twist and an extension of the DNA. Moreover, a molecule can be presumed to bind to deoxyribonucleic acid by intercalation between base pairs if it causes lengthening and unwinding of the deoxyribonucleic acid base pairs. In this case, the relative viscosity of DNA gradually increases, while the […]. Moreover, the affinity interactions and their slope values were observed from the relative specific viscosity (η⁄η0)^1/3 plotted straight line contrasting [Compound]/[DNA], and absolute specific viscosity of deoxyribonucleic acid in the absence or presence of samples was evaluated using equation (12) (Table 3). […] The evaluated slope findings were in the subsequent sequence: (EB) 1.215 > (1a) 0.915 > (2a) 0.630 > (HL) 0.490 (Figure S21 and Table 3). […] Due to the existence of the 2,2′-bipyridine and morpholine-fused aromatic planar systems, compounds can interact with deoxyribonucleic acid robustly via intercalation. The outcomes were excellent in accordance with the observed outcomes of absorption spectral properties.(11) η/η0^1/3=tcomplex−t0/t0/tDNA−t0/t0, where η and η0 are represented as specific viscosity of DNA in the presence complex and specific viscosity of DNA alone, and t0, tDNA, and tcomplex are represented as the average flow time of the Tris-HCl buffer solution, the average flow time of DNA alone solution, and the average flow time of DNA interacted with the samples, respectively. Error limit is ±2.5% (P < 0.025).

[4] = Superoxide scavenging assay; assay type: biochemical; details: for % Inhibition superoxide: 590 nm
Method: All samples were evaluated for their scavenging ability with the help of UV-visible spectrophotometer at different concentrations of 40, 80, 120, 160, 200, and 240 μM [6, 28]. While performing the antioxidant properties for the DPPH, hydroxyl, superoxide, and nitric oxide radical scavenging, the absorbance at 517, 230, 590, and 546 nm, respectively, was closely observed. In addition, the observed IC50 values of all samples were compared with ascorbic acid.
A vital enzyme catalyst in the body's defence against free radicals, superoxide dismutase (SOD) quickly and efficiently reduces toxicity and cellular damage by exchanging superoxide with water (or) harmless molecules. The % of inhibition for all substances was analyzed at 590 nm. The outcomes were obtained in the subsequent order: (ascorbic acid) 84.85 > (1a) 67.17 > (2a) 58.18 > (HL) 50.42.

SMILES	(inhibition %) [1] [%]	diameter of the clear zone inhibition [1] [mm]	(inhibition %) [2] [%]	diameter of the clear zone inhibition [2] [mm]	Slope of (η/η0)^1/3 vs [Compound]/[DNA] [3]	Relative specific viscosity (η/η0)^1/3 ([3]; [complex]/[DNA] = 0.2)	Relative specific viscosity (η/η0)^1/3 ([3]; [complex]/[DNA] = 0.4)	Relative specific viscosity (η/η0)^1/3 ([3]; [complex]/[DNA] = 0.6)	Relative specific viscosity (η/η0)^1/3 ([3]; [complex]/[DNA] = 0.8)	Relative specific viscosity (η/η0)^1/3 ([3]; [complex]/[DNA] = 1.0)	% Inhibition superoxide ([4]; 40 µM) [%]	% Inhibition superoxide ([4]; 80 µM) [%]	% Inhibition superoxide ([4]; 120 µM) [%]	% Inhibition superoxide ([4]; 160 µM) [%]	% Inhibition superoxide ([4]; 200 µM) [%]	% Inhibition superoxide ([4]; 240 µM) [%]	IC50 [4] [µM]
[O-]c1ccccc1N=Cc1ccc(N2CCOCC2)cc1.[O-]c1ccccc1N=Cc1ccc(N2CCOCC2)cc1.[Zn+2].c1ccc(-c2ccccn2)nc1 [(2a), [Zn(L)2(bpy)]]	57	14	33	09	0.630	0.74	0.81	0.87	1.03	1.26	06.32	12.67	24.14	40.20	51.92	58.18	–
Oc1ccccc1N=Cc1ccc(N2CCOCC2)cc1 [(HL), 2-(4-morpholinobenzylideneamino)phenol]	33	09	25	08	0.490	0.61	0.67	0.75	0.85	1.01	05.23	10.74	18.85	33.55	40.91	50.42	–
[Cu+2].[O-]c1ccccc1N=Cc1ccc(N2CCOCC2)cc1.[O-]c1ccccc1N=Cc1ccc(N2CCOCC2)cc1.c1ccc(-c2ccccn2)nc1 [(1a), [Cu(L)2(bpy)]]	54	13	33	09	0.915	0.88	1.11	1.22	1.38	1.66	08.32	16.45	31.86	47.69	60.03	67.17	200
